Data: US9783511B2, “Carbamate benzoxazine propionic acids and acid derivatives for modulation of RORgamma activity and the treatment of disease” (Merck Sharp & Dohme Corp., priority 2013, dated 2017)

Biological target: human RORgammaT-Ligand Binding Domain (LBD) (Homo sapiens (Human), UniProt P51449)
Experiment: RORγ-Ligand Binding Domain TR-FRET Assay (co-activator peptide SRC1_2 recruitment)
Assay type: biochemical
Conditions: HIS-tagged RORγ-LBD 3 nM, biotinylated SRC1 LXXLL peptide 100 nM, incubated overnight at 4° C., 665 nm/615 nm ratio
Source text: Activation of RORgammaT activity can be measured using, e.g., a biochemical TR-FRET assay. In such an assay, interaction of cofactor-derived peptides with human RORgammaT-Ligand Binding Domain (LBD) can be measured.
To identify novel antagonists of RORgammaT, an assay was developed which employs the interaction of RORgammaT with its co-activator peptide SRC1_2. […] The RORγ-Ligand Binding Domain TR-FRET Assay was run according to the following protocol.
HIS-tagged RORγ-LBD protein was recombinantly expressed in Escherichia coli. The RORγ-LBD protein was purified by Ni^2+-affinity resin. Purified protein was then diluted in assay buffer (50 mM Tris pH 7.0, 50 mM KCl, 1 mM EDTA, 0.1 mM DTT, 100 μg/mL bovine serum albumin, delipidated) to obtain a RORγ-LBD final concentration of 3 nM.
Compounds to be tested were injected to the 384-well assay plate using Acoustic Droplet Ejection technology by Echo 550 liquid handler (Labcyte, CA).

human RORgammaT-Ligand Binding Domain (LBD), sequence (P51449 269-508): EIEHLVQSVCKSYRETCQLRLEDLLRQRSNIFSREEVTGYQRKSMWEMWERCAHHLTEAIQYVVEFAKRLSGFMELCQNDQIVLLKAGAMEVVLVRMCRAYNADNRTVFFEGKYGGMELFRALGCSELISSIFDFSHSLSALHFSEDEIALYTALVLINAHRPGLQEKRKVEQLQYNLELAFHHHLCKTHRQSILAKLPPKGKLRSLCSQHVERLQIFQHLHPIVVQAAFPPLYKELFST

Row | SMILES | IC50 [nM]
1 | Cc1ccc(S(=O)(=O)N2C[C@H]([C@@H]3C[C@H]3C(=O)O)Oc3ccc(NC(=O)OC(C)(C)C(F)(F)F)cc32)cc1 (single isomer, unassigned) [Example 22H, (1S,2S or 1R,2R or 1S,2R or 1R,2S)-2-((S)-4-tosyl-6-((((1,1,1-trifluoro-2-methylpropan-2-yl)oxy)carbonyl)amino)-3,4-dihydro-2H-benzo[b][1,4]oxazin-2-yl)cyclopropanecarboxylic acid] | 141
2 | COc1cc(S(=O)(=O)N2C[C@H]([C@@H]3C[C@H]3C(=O)O)Oc3ccc(NC(=O)OC(C)(C)C(F)(F)F)cc32)ccc1F (single isomer, unassigned) [Example 22J, (1R,2S or 1R,2R or 1S,2S or 1S,2R)-2-((S)-4-((4-fluoro-3-methoxyphenyl)sulfonyl)-6-((((1,1,1-trifluoro-2-methylpropan-2-yl)oxy)carbonyl)amino)-3,4-dihydro-2H-benzo[b][1,4]oxazin-2-yl)cyclopropanecarboxylic acid] | 13.5
3 | COc1cc(S(=O)(=O)N2C[C@H]([C@H]3C[C@H]3C(=O)O)Oc3ccc(NC(=O)OC(C)(C)C(F)(F)F)cc32)ccc1F (single isomer, unassigned) [Example 22M, (1R,2S or 1R,2R or 1S,2S or 1S,2R)-2-((S)-4-((4-fluoro-3-methoxyphenyl)sulfonyl)-6-((((1,1,1-trifluoro-2-methylpropan-2-yl)oxy)carbonyl)amino)-3,4-dihydro-2H-benzo[b][1,4]oxazin-2-yl)cyclopropanecarboxylic acid] | 8.71
4 | COc1cc(S(=O)(=O)N2C[C@H]([C@@H]3C[C@@H]3C(=O)O)Oc3ccc(NC(=O)OC(C)(C)C(F)(F)F)cc32)ccc1F (single isomer, unassigned) [Example 22N, (1R,2S or 1R,2R or 1S,2S or 1S,2R)-2-((S)-4-((4-fluoro-3-methoxyphenyl)sulfonyl)-6-((((1,1,1-trifluoro-2-methylpropan-2-yl)oxy)carbonyl)amino)-3,4-dihydro-2H-benzo[b][1,4]oxazin-2-yl)cyclopropanecarboxylic acid] | 5.87
5 | COc1cc(S(=O)(=O)N2C[C@H]([C@H]3C[C@@H]3C(=O)O)Oc3ccc(NC(=O)OC(C)(C)C(F)(F)F)cc32)ccc1F (single isomer, unassigned) [Example 22i, (1R,2S or 1R,2R or 1S,2S or 1S,2R)-2-((S)-4-((4-fluoro-3-methoxyphenyl)sulfonyl)-6-((((1,1,1-trifluoro-2-methylpropan-2-yl)oxy)carbonyl)amino)-3,4-dihydro-2H-benzo[b][1,4]oxazin-2-yl)cylcopropanecarboxylic acid] | 22.4
6 | COc1cc(S(=O)(=O)N2C[C@H](CCC(=O)O)Oc3ccc(NC(=O)O[C@@H](C)C(C)(C)C)cc32)ccc1F (single isomer, unassigned) [Example 24C, 3-{(2S)-4-[(4-fluoro-3-methoxyphenyl)sulfonyl]-6-[({[(1S or 1R)-1,2,2-trimethylpropyl]oxy}carbonyl)amino]-3,4-dihydro-2H-1,4-benzoxazin-2-yl}propanoic acid] | 3.8
7 | COc1cc(S(=O)(=O)N2C[C@H](CCC(=O)O)Oc3ccc(NC(=O)O[C@H](C)C(C)(C)C)cc32)ccc1F (single isomer, unassigned) [Example 24D, 3-{(2S)-4-[(4-fluoro-3-methoxyphenyl)sulfonyl]-6-[({[(1S or 1R)-1,2,2-trimethylpropyl]oxy}cxarbonyl)amino]-3,4-dihydro-2H-1,4-benzoxazin-2-yl}propanoic acid] | 3.73
8 | CCn1cc(S(=O)(=O)N2C[C@H](CCC(=O)O)Oc3ccc(NC(=O)OC(C)(C)C(F)(F)F)cc32)c(OCCO)n1 (stereo in doubt) [Example 6CA, 3-(4-{[1-ethyl-3-(2-hydroxyethoxy)-1H-pyrazol-4-yl]sulfonyl}-6-{[(2,2,2-trifluoro-1,1-dimethylethoxy)carbonyl]amino}-3,4-dihydro-2H-1,4-benzoxazin-2-yl)propanoic acid] | 11.4
9 | CC(C)(OC(=O)Nc1ccc2c(c1)N(S(=O)(=O)c1cccc(Br)c1)C[C@H](CCC(=O)O)O2)C(F)(F)F [Example 6AA, (S)-3-(4-((3-bromophenyl)sulfonyl)-6-((((1,1,1-trifluoro-2-methylpropan-2-yl)oxy)carbonyl)amino)-3,4-dihydro-2H-benzo[b][1,4]oxazin-2-yl)propanoic acid] | 6
10 | CCOc1nn(C(F)F)cc1S(=O)(=O)N1C[C@H](CCC(=O)O)Oc2ccc(NC(=O)OC(C)(C)C(F)(F)F)cc21 [Example 6AB, (S)-3-(4-((1-(difluoromethyl)-3-ethoxy-1H-pyrazol-4-yl)sulfonyl)-6-((((1,1,1-trifluoro-2-methylpropan-2-yl)oxy)carbonyl)amino)-3,4-dihydro-2H-benzo[b][1,4]oxazin-2-yl)propanoic acid] | 9
11 | CC(C)(OC(=O)Nc1ccc2c(c1)N(S(=O)(=O)c1cccc(C3CC3)c1)C[C@H](CCC(=O)O)O2)C(F)(F)F [Example 6AC, (S)-3-(4-((3-cyclopropylphenyl)sulfonyl)-6-((((1,1,1-trifluoro-2-methylpropan-2-yl)oxy)carbonyl)amino)-3,4-dihydro-2H-benzo[b][1,4]oxazin-2-yl)propanoic acid] | 8
12 | CC(C)(OC(=O)Nc1ccc2c(c1)N(S(=O)(=O)c1ccc3c(c1)CCO3)C[C@H](CCC(=O)O)O2)C(F)(F)F [Example 6AE, (S)-3-(4-((2,3-dihydrobenzofuran-5-yl)sulfonyl)-6-((((1,1,1-trifluoro-2-methylpropan-2-yl)oxy)carbonyl)amino)-3,4-dihydro-2H-benzo[b][1,4]oxazin-2-yl)propanoic acid] | 12.4
13 | CC(C)(OC(=O)Nc1ccc2c(c1)N(S(=O)(=O)c1c(Cl)nc3sccn13)C[C@H](CCC(=O)O)O2)C(F)(F)F [Example 6AF, (S)-5-((2-(2-carboxyethyl)-6-((((1,1,1-trifluoro-2-methylpropan-2-yl)oxy)carbonyl)amino)-2H-benzo[b][1,4]oxazin-4(3H)-yl)sulfonyl)-6-chloroimidazo[2,1-b]thiazole] | 6.2
14 | CC(C)(OC(=O)Nc1ccc2c(c1)N(S(=O)(=O)c1ccc(Cl)c(Cl)c1)C[C@H](CCC(=O)O)O2)C(F)(F)F [Example 6AH, (S)-3-(4-((3,4-dichlorophenyl)sulfonyl)-6-((((1,1,1-trifluoro-2-methylpropan-2-yl)oxy)carbonyl)amino)-3,4-dihydro-2H-benzo[b][1,4]oxazin-2-yl)propanoic acid] | 8.84
15 | Cc1ccc(S(=O)(=O)N2C[C@H](CCC(=O)O)Oc3ccc(NC(=O)OC(C)(C)C(F)(F)F)cc32)cc1Cl [Example 6AJ, (S)-3-(4-((3-chloro-4-methylphenyl)sulfonyl)-6-((((1,1,1-trifluoro-2-methylpropan-2-yl)oxy)carbonyl)amino)-3,4-dihydro-2H-benzo[b][1,4]oxazin-2-yl)propanoic acid] | 14
16 | Cc1c(Cl)cc(F)cc1S(=O)(=O)N1C[C@H](CCC(=O)O)Oc2ccc(NC(=O)OC(C)(C)C(F)(F)F)cc21 [Example 6AK, (S)-3-(4-((3-chloro-5-fluoro-2-methylphenyl)sulfonyl)-6-((((1,1,1-trifluoro-2-methylpropan-2-yl)oxy)carbonyl)amino)-3,4-dihydro-2H-benzo[b][1,4]oxazin-2-yl)propanoic acid] | 11.1
17 | CC(C)(OC(=O)Nc1ccc2c(c1)N(S(=O)(=O)c1ccc(Cl)cn1)C[C@H](CCC(=O)O)O2)C(F)(F)F [Example 6AL, (S)-2-((2-(2-carboxyethyl)-6-((((1,1,1-trifluoro-2-methylpropan-2-yl)oxy)carbonyl)amino)-2H-benzo[b][1,4]oxazin-4(3H)-yl)sulfonyl)-5-chloropyridine] | 15
18 | COc1cc(C)ccc1S(=O)(=O)N1C[C@H](CCC(=O)O)Oc2ccc(NC(=O)OC(C)(C)C(F)(F)F)cc21 [Example 6AQ, (S)-3-(4-((2-methoxy-4-methylphenyl)sulfonyl)-6-((((1,1,1-trifluoro-2-methylpropan-2-yl)oxy)carbonyl)amino)-3,4-dihydro-2H-benzo[b][1,4]oxazin-2-yl)propanoic acid] | 17.1
19 | COc1cc(S(=O)(=O)N2C[C@H](CCC(=O)O)Oc3ccc(NC(=O)OC(C)(C)C(F)(F)F)cc32)ccn1 [Example 6AV, (S)-4-((2-(2-carboxyethyl)-6-((((1,1,1-trifluoro-2-methylpropan-2-yl)oxy)carbonyl)amino)-2H-benzo[b][1,4]oxazin-4(3H)-yl)sulfonyl)-2-methoxypyridine] | 24.1
20 | Cc1cc(S(=O)(=O)N2C[C@H](CCC(=O)O)Oc3ccc(NC(=O)OC(C)(C)C(F)(F)F)cc32)c(F)cc1F [Example 6AW, (S)-3-(4-((2,4-difluoro-5-methylphenyl)sulfonyl)-6-((((1,1,1-trifluoro-2-methylpropan-2-yl)oxy)carbonyl)amino)-3,4-dihydro-2H-benzo[b][1,4]oxazin-2-yl)propanoic acid] | 7.71
21 | Cc1nn(C(F)F)cc1S(=O)(=O)N1C[C@H](CCC(=O)O)Oc2ccc(NC(=O)OC(C)(C)C(F)(F)F)cc21 [Example 6AX, (S)-4-((2-(2-carboxyethyl)-6-((((1,1,1-trifluoro-2-methylpropan-2-yl)oxy)carbonyl)amino)-2H-benzo[b][1,4]oxazin-4(3H)-yl)sulfonyl)-1-(difluoromethyl)-3-methyl-1H-pyrazole] | 9.92
